Results from ChEMBL document CHEMBL5360546, “Identification and characterisation of the tegument-expressed aldehyde dehydrogenase SmALDH_312 of Schistosoma mansoni, a target of disulfiram” (Eur J Med Chem, 2023).
One block for each compound: values may come before it. Activity calls are given as the source filed them. The calls are words filed in the database; no cut-off is given here.

Experiments:
[1] = molecular target: T1, Aldehyde dehydrogenase, mitochondrial (Homo sapiens) (UniProt P05091); assay: Inhibition of human ALDH2 at 100 uM in presence of NADPH
T1 sequence (whole entry): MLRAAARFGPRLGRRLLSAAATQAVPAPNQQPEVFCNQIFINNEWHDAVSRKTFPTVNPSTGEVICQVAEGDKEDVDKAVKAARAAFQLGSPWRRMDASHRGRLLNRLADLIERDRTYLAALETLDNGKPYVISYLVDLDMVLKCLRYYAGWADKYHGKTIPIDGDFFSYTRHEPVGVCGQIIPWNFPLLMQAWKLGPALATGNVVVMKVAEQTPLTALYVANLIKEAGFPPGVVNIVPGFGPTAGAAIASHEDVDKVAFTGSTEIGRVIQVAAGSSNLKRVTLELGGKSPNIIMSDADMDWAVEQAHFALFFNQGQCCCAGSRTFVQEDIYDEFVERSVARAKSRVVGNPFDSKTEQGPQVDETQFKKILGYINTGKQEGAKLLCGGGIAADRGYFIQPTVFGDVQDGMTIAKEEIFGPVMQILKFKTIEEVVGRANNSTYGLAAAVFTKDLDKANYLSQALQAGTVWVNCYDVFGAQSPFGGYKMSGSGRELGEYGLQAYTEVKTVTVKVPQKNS

[2] = Inhibition of recombinant Schistosoma mansoni ALDH312 expressed in baculovirus Sf9 cells in presence of NADPH
[3] = Inhibition of recombinant Schistosoma mansoni ALDH312 expressed in baculovirus Sf9 cells at 100 uM in presence of NADPH relative to control
Schistosoma mansoni [4] = assay: Antischistosomal activity against Schistosoma mansoni couple assessed as reduction in couple attachment at 10 uM measured at day 3 relative to control; assay type: functional; set-up: scale not given: the % may be the effect or the level left; conditions: time 3 day
Schistosoma mansoni [5] = assay: Antischistosomal activity against Schistosoma mansoni couple assessed as couple separation at 25 uM measured at day 1 relative to control; assay type: functional; conditions: time 1 day
Schistosoma mansoni [6] = assay: Induction of morphological changes in Schistosoma mansoni couple assessed as detachment of tegument at 10 to 25 uM by confocal laser scanning microscopy analysis; assay type: functional, organism-based; conditions: dose 10-25 µM
Schistosoma mansoni [7] = assay: Induction of morphological changes in male Schistosoma mansoni assessed as formation of ruptures at 25 uM by confocal laser scanning microscopy analysis; assay type: functional, organism-based
Schistosoma mansoni [8] = assay: Antischistosomal activity against Schistosoma mansoni couple assessed as decrease in couple attachment at 25 uM measured upto 3 days; assay type: functional, organism-based; conditions: time <= 3.0 day
Schistosoma mansoni [9] = assay: Induction of morphological changes in female Schistosoma mansoni assessed as degeneration of oocytes at 25 uM by scanning electron microscopy analysis; assay type: functional, organism-based
Schistosoma mansoni [10] = assay: Induction of morphological changes in male Schistosoma mansoni assessed as formation of blebs at 25 uM by confocal laser scanning microscopy analysis; assay type: functional, organism-based
Schistosoma mansoni [11] = assay: Downregulation of Smnanos1 transcript level in Schistosoma mansoni male at 10 to 25 uM measured after 72 hrs by qRT-PCR analysis; assay type: functional; conditions: dose 10-25 µM
Schistosoma mansoni [12] = assay: Upregulation of Smnanos2 transcript level in Schistosoma mansoni female at 10 uM measured after 72 hrs by qRT-PCR analysis; assay type: functional
Schistosoma mansoni [13] = assay: Induction of morphological changes in Schistosoma mansoni couple assessed as effect on gonads tegument at 10 uM by confocal laser scanning microscopy analysis; assay type: functional, organism-based
Schistosoma mansoni [14] = assay: Antischistosomal activity against Schistosoma mansoni couple assessed as reduction worm motility at 10 to 200 uM measured at day 3; assay type: functional, organism-based; conditions: dose 10-200 µM, time 3.0 day
Schistosoma mansoni [15] = assay: Induction of morphological changes in male Schistosoma mansoni assessed as degeneration of spermatogonia at 25 uM by scanning electron microscopy analysis; assay type: functional, organism-based
Schistosoma mansoni [16] = assay: Downregulation of Smnanos1 transcript level in Schistosoma mansoni female at 10 to 25 uM measured after 72 hrs by qRT-PCR analysis; assay type: functional; conditions: dose 10-25 µM
Schistosoma mansoni [17] = assay: Induction of morphological changes in Schistosoma mansoni couple assessed as swelling of tegument at 10 to 25 uM by confocal laser scanning microscopy analysis; assay type: functional, organism-based; conditions: dose 10-25 µM
Schistosoma mansoni [18] = assay: Antischistosomal activity against Schistosoma mansoni couple assessed as decrease in total number of eggs measured after 72 hrs; assay type: functional, organism-based; conditions: dose 1-200 µM
[19] = molecular target: T1, Aldehyde dehydrogenase, mitochondrial (Homo sapiens); assay: Inhibition of human ALDH2 at 100 uM in presence of NADPH relative to control
Schistosoma mansoni [20] = assay: Downregulation of Smaldh312 level in Schistosoma mansoni male at 10 uM measured after 72 hrs by qRT-PCR analysis; assay type: functional
Schistosoma mansoni [21] = assay: Induction of morphological changes in Schistosoma mansoni couple assessed as effect on gonads internal structure at 10 uM by confocal laser scanning microscopy analysis; assay type: functional, organism-based
Schistosoma mansoni [22] = assay: Inhibition of cell proliferation in Schistosoma mansoni couple assessed as reduction in EdU positive number measured after 3 days by Hoechst 33342 staining based analysis; assay type: functional; conditions: dose 10-25 µM, time 3.0 day
Schistosoma mansoni [23] = assay: Induction of morphological changes in Schistosoma mansoni couple assessed as loss of structural integrity in reproductive organs at 25 uM by scanning electron microscopy analysis; assay type: functional, organism-based
Schistosoma mansoni [24] = assay: Antischistosomal activity against Schistosoma mansoni couple assessed as couple separation at 100 uM measured at day 1 relative to control; assay type: functional; conditions: time 1 day
Schistosoma mansoni [25] = assay: Upregulation of Smnanos2 transcript level in Schistosoma mansoni male at 10 uM measured after 72 hrs by qRT-PCR analysis; assay type: functional
Schistosoma mansoni [26] = assay: Antischistosomal activity against Schistosoma mansoni couple assessed as worm motility at 1 uM measured after 72 hrs; assay type: functional, organism-based
Schistosoma mansoni [27] = assay: Induction of morphological changes in female Schistosoma mansoni assessed as formation of blebs at 25 uM by confocal laser scanning microscopy analysis; assay type: functional, organism-based
Schistosoma mansoni [28] = assay: Induction of morphological changes in female Schistosoma mansoni assessed as formation of ruptures at 25 uM by confocal laser scanning microscopy analysis; assay type: functional, organism-based
Schistosoma mansoni [29] = assay: Induction of morphological changes in Schistosoma mansoni couple assessed as tubercles rupture at 10 to 25 uM by confocal laser scanning microscopy analysis; assay type: functional, organism-based; conditions: dose 10-25 µM
Schistosoma mansoni [30] = assay: Induction of morphological changes in Schistosoma mansoni couple assessed as formation of blebs at 10 to 25 uM by confocal laser scanning microscopy analysis; assay type: functional, organism-based; conditions: dose 10-25 µM
Schistosoma mansoni [31] = assay: Antischistosomal activity against Schistosoma mansoni larva assessed as lethality at 500 nM measured after 72 hrs by Trypan blue staining based analysis; assay type: functional, organism-based
Schistosoma mansoni [32] = assay: Antischistosomal activity against Schistosoma mansoni couple assessed as couple separation at 1 uM measured after 24 to 72 hrs; assay type: functional, organism-based; conditions: time 24-72 hrs
[33] = Inhibition of recombinant Schistosoma mansoni ALDH312 expressed in baculovirus Sf9 cells at 50 uM in presence of NADPH relative to control

inhibition [1]: Active
IC50 [2]: 12.5 µM
SMILES: CC(C)=CCC/C(C)=C\CNCCNC1C2CC3CC(C2)CC1C3 (stereo not given)
inhibition [3]: 100%

inhibition [19]: 99%
SMILES: CCN(CC)C(=S)SSC(=S)N(CC)CC [DISULFIRAM]
Activity (Schistosoma mansoni [4]): 50%
Activity (Schistosoma mansoni [5]): 50%
Activity (Schistosoma mansoni [6]): Active
Activity (Schistosoma mansoni [7]): Active
Activity (Schistosoma mansoni [8]): Active
Activity (Schistosoma mansoni [9]): Active
Activity (Schistosoma mansoni [10]): Active
Activity (Schistosoma mansoni [11]): Active
Activity (Schistosoma mansoni [12]): inactive
Activity (Schistosoma mansoni [13]): inactive
Activity (Schistosoma mansoni [14]): Active
Activity (Schistosoma mansoni [15]): Active
inhibition [3]: 41.2%
Activity (Schistosoma mansoni [16]): Active
Activity (Schistosoma mansoni [17]): Active
Activity (Schistosoma mansoni [18]): Dose-Dependent Effect
Activity (Schistosoma mansoni [20]): Active
Activity (Schistosoma mansoni [21]): inactive
inhibition (Schistosoma mansoni [22]): Dose-Dependent Effect
Activity (Schistosoma mansoni [23]): Active
Activity (Schistosoma mansoni [24]): 100%
Activity (Schistosoma mansoni [25]): Active
Activity (Schistosoma mansoni [26]): inactive
Activity (Schistosoma mansoni [27]): Active
Activity (Schistosoma mansoni [28]): Active
Activity (Schistosoma mansoni [29]): Active
Activity (Schistosoma mansoni [30]): Active
Activity (Schistosoma mansoni [31]): Active
Activity (Schistosoma mansoni [32]): inactive

inhibition [1]: inactive
IC50 [2]: 7.5 µM
SMILES: O=C(Nc1ccc(C(F)(F)F)c(C(F)(F)F)c1)c1cc(Cl)ccc1O
inhibition [3]: 100%
inhibition [33]: 100%

inhibition [1]: inactive
IC50 [2]: 21.8 µM
SMILES: CN1CCC(NCc2cccc(-c3ccc(S(=O)(=O)NCc4ccccc4)cc3)c2)CC1
inhibition [3]: 80.4%
